ChEMBL document CHEMBL3243940, “Primaquine analogues: derivatives of 4-amino-2-methoxyacridine” (J Med Chem, 1979)

How the values were obtained:
Leishmania donovani [1] = experiment: Antileishmanial activity against amastigotes of Leishmania donovani Khartoum infected in golden hamster assessed as reduction of parasite level in liver at 52 mg/kg bid for 4 days; assay type: functional; design: scale not given: the % may be the effect or the level left
Leishmania donovani [2] = experiment: Antileishmanial activity against amastigotes of Leishmania donovani Khartoum infected in golden hamster assessed as reduction of parasite level in liver at 13 mg/kg bid for 4 days; assay type: functional; design: scale not given: the % may be the effect or the level left
Leishmania donovani [3] = experiment: Ratio of glucantime SD50 to compound SD50 for amastigotes of Leishmania donovani Khartoum infected in golden hamster; assay type: functional
Syrian golden hamster = experiment: Toxicity in amastigotes of Leishmania donovani Khartoum infected golden hamster at 208 mg/kg bid for 4 days; assay type: organism-based, Mesocricetus auratus; design: dose 208 mg/kg; conditions: in vivo, 96 h

SMILES: CCN(CC)CCCCCCNc1cc(OC)cc2c(C)c3ccccc3nc12
- Activity (Leishmania donovani [1]): 53%
- Activity (Leishmania donovani [2]): 36%
- Ratio (Leishmania donovani [3]): 0.2
- Activity (Syrian golden hamster): Toxic
